# Measurements taken from patent publication US11241434B2, “Compositions and methods for improving cognition in a subject” (Yale University, priority 2013, dated 2022).
# Key:
# PS19 mice = assay: Immunohistochemistry of hippocampus of PS19 mice; type: in vivo, mouse
# Excerpt: FIG. 12A-12F illustrate reduced phospho-Tau accumulation in transgenic mice treated with AZD0530. FIG. 12A: Representative images of AT8 immunoreactivity in the dentate gyrus (DG) of the hippocampus in 9-month-old PS19 mice after 7 months of treatment with AZD0530 or Vehicle. Scale bar, […]. FIG. 12B: Quantification of AT8-positive area (%) in the dentate gyrus of the hippocampus in 9-month-old PS19 and WT mice after 7 months of treatment. Data are mean±SEM. n=7-10/group, each dot is one mouse. […] FIG. 12C: Representative images of immunofluorescent staining for AT8 in the CA1 of the hippocampus in 9-month-old PS19 and WT mice after 7 months of treatment. Scale bar, […]. FIG. 12D: Quantification of AT8-positive area in the CA1 of the hippocampus in 9-month-old PS19 and WT mice after 7 months of treatment. Data are mean±SEM. n=7-10/group, each dot is one mouse. […] FIG. 12E: Representative images of immunofluorescent staining for PHF1 in the CA1 of the hippocampus in 9-month-old PS19 and WT mice after 7 months of treatment. Scale bar, […]. FIG. 12F: Quantification of PHF1-positive area in the CA1 of the hippocampus in 9-month-old PS19 and WT mice after 7 months of treatment. Data are mean±SEM. n=7-10/group, each dot is one mouse.
# FIGS. 13A-13D illustrate that chronic Fyn inhibition prevents glial activation in mutant Tau transgenic mice. FIG. 13A: Representative images of CD68 and Ibal double immunostaining in the CA3 region of the hippocampus from 9-month-old PS19 and WT mice after 7 months of treatment with AZD0530 or Vehicle. Scale bar, 20 μm. FIG. 13B: Quantification of CD68-positive area (%) within Ibal-immuoreative area in the CA3 segment of the hippocampus from 9-month-old PS19 and WT mice after 7 months of treatment. Data are as mean±SEM. n=7-10/group, each dot is one mouse. *p<0.05; One-way ANOVA with Dunnett's multiple comparisons test. FIG. 13C: Representative images of immunofluorescent staining GFAP in the dentate gyrus (DG) of the hippocampus in 9-month-old PS19 and WT mice after 7 months of treatment. Scale bar, 20 μm. FIG. 13D: Quantification of GFAP-positive area (%) in the dentate gyrus of the hippocampus in 9-month-old PS19 and WT mice after 7 months of treatment. n=7-10/group, each dot is one mouse. Data are mean±SEM. *p<0.05; One-way ANOVA with Dunnett's multiple comparisons test.
# FIGS. 14A-14B illustrate the finding that loss of presynaptic marker SV2A in P301S Tau transgenic mice is rescued by Fyn inhibition. FIG. 14A: Representative images of immunofluorescent staining for SV2A in the CA3 region of the hippocampus from 9-month-old PS19 and WT mice after 7 months of treatment with AZD0530 or Vehicle. Dashed lines represent the divide between the cell body layer and synaptic region. The cell bodies in the image were used to capture similar ROI from each section. Scale bar, 20 μm. FIG. 14B: Quantification of SV2A-positive area (%) in the CA3 of the hippocampus in 9-month-old PS19 and WT mice after 7 months of treatment. Data are mean±SEM. n=7-10/group, each dot is one mouse.
# FIGS. 19A-19D illustrate low magnification survey of gliosis in PS19 mice unaffected by AZD0530. FIG. 19A: Representative images of Ibal immunostaining in the hippocampus in 9-month-old PS19 and WT mice after 7 months of treatment. Scale bar, 100 m. FIG. 19B: Quantification of Ibal-positive area (%) in the hippocampus in 9-month-old PS19 and WT mice collected after 7 months of treatment. Data are mean±SEM. n=7-10/group. One-way ANOVA. FIG. 19C: Representative images of immunofluorescent staining GFAP in the hippocampus in 9-month-old PS19 and WT mice after 7 months of treatment. Scale bar, 100 μm. FIG. 19D: Quantification of GFAP-positive area (%) in the hippocampus in 9-month-old PS19 and WT mice collected after 7 months of treatment. Data are mean±SEM. n=7-10/group. One-way ANOVA.
# Immunohistochemistry was performed as previously described (Kaufman et al., 2015, Ann Neurol 77:953-971) with slight modifications. […]
# [1] = test system: APPswe/PS1ΔE9 transgenic mice; assay: Histology of AD transgenic mice (Aβ plaque, PSD-95, SV2A); type: in vivo, mouse; settings: for synapse density (PSD-95, SV2A) in dentate gyrus: 5 weeks
# Excerpt: FIGS. 10A-10C illustrate the finding that synaptic markers recover after treatment with a Fyn inhibitor. […] FIG. 10A: Representative sections from the labeled groups were stained with anti-PSD-95 antibody and the molecular layer of the dentate gyrus was imaged with a confocal microscope with a 60× objective lens. Scale bar, 3 μm. FIG. 10B: Fractional area of immunoreactive puncta for PSD-95. p<0.05, ANOVA with post-hoc pairwise Tukey comparisons. Mean±SEM, n=5-10 mice per group, two images per mouse. FIG. 10C: Fractional area of immunoreactive puncta for SV2. p<0.05, ANOVA with post-hoc pairwise Fisher's least significant difference (LSD). Mean±SEM, n=5-10 mice per group, two images per mouse.
# The animals were familiarized with two objects on the first day of testing, and then observed on the next day with one novel object and one familiar object. The time spent exploring each object was scored by an observed unaware of drug treatment (FIG. 5). WT mice spend more time with the novel object. However, vehicle-treated APPswe/PS1ΔE9 mice spent equal time with both objects, consistent with impaired memory of familiarization on the previous day. […] The tissue from these mice is analyzed histologically, e.g., for Aβ plaque and synaptic markers (which are reduced in the transgenic mice). […] Without wishing to be limited by theory, this finding is consistent with the fact that saracatinib blocks the downstream action of Aβo on neurons, but not the upstream production of Aβ.
# Upon analysis of a post-synaptic marker (PSD-95) or a presynaptic marker (SV2A) in the dentate gyrus of the hippocampus, an saracatinib-induced restoration of synapse density was observed. The twelve-month old transgenic mice have lost approximately 30-40% of synapses by the immunohistological measures.
# [2] = 9-month-old PS19 mice, 7 months of treatment
compound,measurement,setting,value
"CN1CCN(CCOc2cc(OC3CCOCC3)c3c(Nc4c(Cl)ccc5c4OCO5)ncnc3c2)CC1 [saracatinib, N-(5-chloro-benzo[d][1,3]dioxol-4-yl)-7-(2-(4-methylpiperazin-1-yl)ethoxy)-5-(tetrahydro-2H-pyran-4-yloxy)quinazolin-4-amine]",AT8 (phospho-Tau Ser202/Thr205) immunoreactivity in DG and CA1,PS19 mice; [2],significantly mitigates the increase
same,CD68 immunoreactivity in Iba1-immunoreactive area of CA3,PS19 mice; [2],almost completely prevented the increase
same,SV2A immunoreactivity in CA3,PS19 mice; [2],fully rescued the reduction
same,astrocytosis (GFAP-immunoreactive area in dentate gyrus),PS19 mice; [2],significantly attenuated
same,"gliosis (Iba1, GFAP) in hippocampus, low magnification survey",PS19 mice; [2],unaffected
same,PHF-1 (phospho-Tau Ser396/Ser404) immunoreactive area in CA1,"PS19 mice; 9-month-old PS19 mice, 7 months of treatment, vs Vehicle",significant decrease
same,PY18 Tau levels,PS19 mice; AZD0530-treated PS19 samples,no change
same,Aβ plaque content,[1]; APPswe/PS1ΔE9 mice,No significant changes
same,"synapse density (PSD-95, SV2A) in dentate gyrus",[1]; APPswe/PS1ΔE9 mice,restored to WT control levels
same,"synapse density (PSD-95, SV2A) in dentate gyrus",[1]; WT mice,no change
